Consider 21 compounds from patent US20240139185A1, “COMPOUNDS THAT PARTICIPATE IN COOPERATIVE BINDING AND USES THEREOF” (Revolution Medicines, Inc., priority 2018, published 2024).

Some results are limits rather than exact numbers.

Experiment [1] has as its target T1, BRAF-GTP-KRAS-G12C complex (Homo sapiens, UniProt P01116+P62937, G12C).
T1 construct: 50 nM of His6-KRas G12C-GTP (1-169); 500 nM of tagless CypA (1-165)
Kind of experiment: KRAS-BRAF complex disruption through competition with CYPA-compound by TR-FRET. To be noted: biochemical BRAF-KRAS G12C-GTP disruption assay EC50, with CYPA. The protocol: In this example, TR-FRET was used to measure the compound-facilitated disruption of a KRAS-BRAF complex. A mixture of tagless Cyclophilin A, His6-KRAS G12C-GMP-PNP, and GST-BRAF RAS binding domain was added to a 384-well assay plate containing compounds of the invention and incubated for 3 hours. A mixture of Anti-His Eu-W1024 and anti-GST allophycocyanin was then added and the reaction was incubated for an additional 1.5 hours. TR-FRET signal was read on an EnVision microplate reader (Perkin Elmer, Ex 320 nm, Em 665/615 nm). Compounds that facilitate disruption of a KRAS_BRAF complex were identified as those eliciting a decrease in the TR-FRET ratio relative to DMSO control wells. To determine the presenter-dependence of the compound-mediated KRAS-BRAF complex disruption, Cyclophilin A was left out of the initial incubation (see Table 5). To determine G12C specificity of the compound-mediated KRAS-BRAF complex disruption, wild-type KRAS was used instead of G12C KRAS (see Table 5).
Reagents and Instrument • Tagless CYPA; 519 μM in PBS buffer, pH 7.4 • GST BRAF; 110 μM in PBS buffer, pH 7.4 • His6-KRASG12C-GMP-PNP; 50 μM in PBS buffer, pH 7.4 • His6-KRASWT-GMP-PNP; 40 μM in PBS buffer, pH 7.4 • Anti-His Eu-W1024 (LANCE® Eu-W1024; Perkin Elmer) • Anti-GST allophycocyanin (Anti-GST IgG conjugated to SureLight®-Allophycocyanin; Perkin Elmer; Product Number AD0059G) • Test compounds, 10 mM in 100% DMSO • EnVision (Perkin Elmer) • Combi MultiDrop liquid dispenser with 8-channel small volume cassette • 384-well ProxiPlate (black)
Experimental Protocol • 1. Use Mosquito to dispense 100 nL/well of compounds (varying concentration in […]) into 384-well black ProxiPlate to make assay-ready-plate (ARP). • 2. Make assay buffer containing 25 mM Hepes pH 7.3, 100 mM NaCl, 5 mM MgCl2, 0.05% BSA, and 0.002% Tween-20. • 3. Make PRE-MIX A: delivers final concentrations of 50 nM of His6-KRas G12C-GTP (1-169) and 500 nM of tagless CypA (1-165) in assay buffer. • a. For presenter dependence experiments, omit addition of tagless CypA • b. For G12C/wt specificity experiments, substitute His6-KRas WT-GTP (1-169) for His6-KRas G12C-GTP (1-169) • 4. Use MultiDrop Combi to dispense PRE-MIX A into ARP, 7 μl/well. Incubate 3 hr at room temperature. • 5. Make PRE-MIX B: delivers final concentrations of 10 nM of anti-His Eu-W1024 and 50 nM of anti-GST APC. • 6. Use MultiDrop Combi to dispense PRE-MIX B into ARP, 3 μl/well. Shake briefly on Combi and incubate 1.5 hr at room temperature. • 7. Read on EnVision (Ex: 320 nm; Em1: 615 nm; Em2: 665 nm). • 8. Data is processed using Dotmatics. Curves are fit using a 4-parameter non-linear fit to determine the EC50 value for formation of the ternary complex.

A further experiment has as its target cyclophilin A (CYPA) (Homo sapiens, UniProt P62937). As to the kind of experiment: CYPA-compound binary complex formation by SPR. Particulars: read-out: CYPA Binding Affinity. The protocol:
In order to determine the affinity of compounds of the invention for cyclophilin A (CYPA), we employed surface plasmon resonance binding analysis using the following reagents, instruments and protocol as supplied by the instrument manufacturer.
Reagents and Instrument • 1. Instrument: Biacore S200 (GE Healthcare Life Sciences) • 2. Running buffer: 1×HBS-P+ (1×HBS supplemented with 0.05% Tween20), pH7.4, and 2% DMSO. • 3. Ligand: CypA-Avi • 4. Analyte: Serial dilution of WDB compounds from 50 μM to 0 μM, 2-fold dilution, 10 points (10 mM stock concentration). • 5. Sensor kit: Biotin CAPture Kit (BR28-9202-34, GE Healthcare Life Sciences) • 6. Regeneration buffer: 1 volume of 1 M NaOH and 3 volumes of 8 M guanidine hydrochloride (supplied with CAPture Kit, BR28-9202-34, GE Healthcare Life Sciences)
Experimental Procedure • 1. Capture of CAPreagent: 2 μl/min for 60 seconds. • 2. Immobilization of ligand CypA: Use Fc1 as the reference cell; immobilize CypA at 4 μg/ml using 5 μl/min flowrate on Fc2 (60s), Fc3 (80s) and Fc4 (80s), respectively. • 3. Binding of analytes: Inject WDB compound dilutions sequentially at 50 μl/min for association of 60 seconds. And then let it dissociates in buffer at 50 μl/min for 60 seconds. • 4. Regeneration: 2 injections of regeneration buffer at 30 μl/min for 60 seconds to regenerate the chip surface. • 5. Solvent correction: Run solvent correction at beginning and the end of the run. If run more than 6 compounds, add additional solvent correction every 6 compounds. • 6. Data fitting with built-in Biacore Evaluation Software: Steady-state fitting.
On the technique in general: SPR reads the build-up and loss of mass on a sensor chip optically.

With `CC1CCn2cnc3ccc(cc32)-c2cc(O)cc(c2)CC(NC(=O)C(C(C)C)N(C)C(=O)C2CN(C(=O)CCl)C2)C(=O)N2CCCC(N2)C(=O)O1` (mixture of isomers) [Compound 140], the EC50 (usually the concentration that produces a half-maximal response) in experiment [1] was in the range of 0.5 to 5 µM. For the same compound, the Kd on cyclophilin A (CYPA) was greater than 15 µM.
As for `Cc1nc2ccc3cc2n1CC(O)COC(=O)C1CCCN(N1)C(=O)C(NC(=O)C(C(C)C)N(C)C(=O)C1CN(C(=O)CCl)C1)Cc1cc(O)cc-3c1` (mixture of isomers) [Compound 154], in experiment [1], the concentration giving a half-maximal response (EC50) lay in the range of 0.5 to 5 µM. Also, the Kd on cyclophilin A (CYPA) lay in the range of 5 to 15 µM.
On to `CC1COC(=O)[C@@H]2CCCN(N2)C(=O)[C@@H](NC(=O)[C@H](C(C)C)N(C)C(=O)C2CN(C(=O)CCl)C2)Cc2cc(O)cc(c2)-c2ccc3c(C#N)cn(c3c2)C1` (single isomer, unassigned) [Compound 88], for which the 50% effective concentration (EC50) in experiment [1] was in the range of 0.5 to 5 µM. The Kd on cyclophilin A (CYPA) was greater than 15 µM.
As for `C=CC(=O)N1CCN([C@H](C(=O)N[C@H]2Cc3cc(O)cc(c3)-c3ccc4nccc(c4c3)OCCOC(=O)[C@@H]3CCCN(N3)C2=O)C(C)C)C1=O` [Compound 2, (2S)-2-(3-acryloyl-2-oxoimidazolidin-1-yl)-N-((6^3S,4S)-2^5-hydroxy-5,7-dioxo-6^1,6^2,6^3,6^4,6^5,6^6-hexahydro-8,11-dioxa-1(6,4)-quinolina-6(1,3)-pyridazina-2(1,3)-benzenacycloundecaphane-4-yl)-3-methylbutanamide], the 50% effective concentration (EC50) in experiment [1] is greater than 5 µM. For the same compound, on cyclophilin A (CYPA), the Kd is no more than 5 µM.
`C=CC(=O)N1CCN([C@H](C(=O)N[C@H]2Cc3cncc(c3)-c3ccc4nc(CC)n(c4c3)CCCOC(=O)[C@@H]3CCCN(N3)C2=O)C(C)C)C1=O` [Compound 4, (2S)-2-(3-acryloyl-2-oxoimidazolidin-1-yl)-N-((6^3S,4S)-12-ethyl-5,7-dioxo-6^1,6^2,6^3,6^4,6^5,6^6-hexahydro-1^1H-8-oxa-1(6,1)-benzo[d]imidazola-6(1,3)-pyridazina-2(3,5)-pyridinacycloundecaphane-4-yl)-3-methylbutanamide] gave an EC50 in experiment [1] greater than 5 µM. The Kd on cyclophilin A (CYPA) was 5 to 15 µM.
In turn, `C=CC(=O)N1CCN([C@H](C(=O)N[C@H]2Cc3cc(O)cc(c3)-c3ccc4ccn(c4c3)CCCOC(=O)[C@@H]3CCCN(N3)C2=O)C(C)C)C1=O` [Compound 93] came in with a half-maximal effective concentration (EC50) in experiment [1] greater than 5 µM. Besides, the Kd at cyclophilin A (CYPA) was no more than 5 µM.
Consider `C=CC(=O)N1CCN(C(C(=O)NC2Cc3cc(O)cc(c3)-c3ccc4c(C#N)cn(c4c3)CCCOC(=O)C3CCCN(N3)C2=O)C(C)C)C1=O` (centres unmarked) [Compound 94], for which the 50% effective concentration (EC50) in experiment [1] fell in the range of 0.5 to 5 µM. At cyclophilin A (CYPA), the Kd was no more than 5 µM.
Turning to `C=CC(=O)N1CCN([C@H](C(=O)N[C@H]2Cc3cc(O)cc(c3)-c3ccc4c(CC#N)cn(c4c3)CCCOC(=O)[C@@H]3CCCN(N3)C2=O)C(C)C)C1=O` [Compound 96], the EC50 in experiment [1] lay within 0.5 to 5 µM. In addition, the Kd at cyclophilin A (CYPA) is no more than 5 µM.
With `CC(C)C(C(=O)NC1Cc2cc(O)cc(c2)-c2ccc3c(C#N)cn(c3c2)CC(C)(C)COC(=O)C2CCCN(N2)C1=O)N(C)C(=O)C1CN(C(=O)CCl)C1` (centres unmarked) [Compound 98], the EC50 in experiment [1] was no more than 0.5 µM. Also, the Kd on cyclophilin A (CYPA) is 5 to 15 µM.
`CC(C)C(C(=O)NC1Cc2cc(O)cc(c2)-c2ccc3c(C#N)cn(c3c2)CCCOC(=O)C2CCCN(N2)C1=O)N(C)C(=O)C1CN(C(=O)CCl)C1` (centres unmarked) [Compound 101] gave an EC50 in experiment [1] of 0.5 to 5 µM. Moreover, the Kd at cyclophilin A (CYPA) was no more than 5 µM.
`C=CC(=O)N1CCN([C@H](C(=O)N[C@H]2Cc3cc(O)cc(c3)-c3ccc4nc(CC)n(c4c3)CCCOC(=O)[C@@H]3CCCN(N3)C2=O)C(C)C)C1=O` [Compound 141] had an EC50 in experiment [1] of 0.5 to 5 µM. Besides, the Kd on cyclophilin A (CYPA) is no more than 5 µM.
Turning to `Cc1nc2ccc3cc2n1CC(C)(C)COC(=O)[C@@H]1CCCN(N1)C(=O)[C@@H](NC(=O)[C@H](C(C)C)N(C)C(=O)CN1CC=CC1=O)Cc1cc(O)cc-3c1` [Compound 144], in experiment [1], the EC50 is greater than 5 µM. For the same compound, on cyclophilin A (CYPA), the Kd is 5 to 15 µM.
Taken in the same sequence, the figures for `C=CC(=O)N1CC(C(=O)N(C)[C@H](C(=O)N[C@H]2Cc3cc(O)cc(c3)-c3ccc4nc(C)n(c4c3)CC(C)(C)COC(=O)[C@@H]3CCCN(N3)C2=O)C(C)C)C1` [Compound 145] were 0.5 to 5 µM and 5 to 15 µM.
Turning to `Cc1nc2ccc3cc2n1CC(C)(C)COC(=O)[C@@H]1CCCN(N1)C(=O)[C@@H](NC(=O)[C@H](C(C)C)N1CCN(C(=O)CCl)CC1=O)Cc1cc(O)cc-3c1` [Compound 146], the EC50 in experiment [1] lay in the range of 0.5 to 5 µM. Also, the Kd at cyclophilin A (CYPA) lay in the range of 5 to 15 µM.
As for `Cc1nc2ccc3cc2n1C[C@@H](C)COC(=O)[C@@H]1CCCN(N1)C(=O)[C@@H](NC(=O)[C@H](C(C)C)N(C)C(=O)C1CN(C(=O)CCl)C1)Cc1cc(O)cc-3c1` [Compound 148], the EC50 in experiment [1] was 0.5 to 5 µM. For the same compound, at cyclophilin A (CYPA), the Kd was greater than 15 µM.
On to `Cc1nc2ccc3cc2n1CC(C)(C)COC(=O)[C@@H]1CCCN(N1)C(=O)[C@@H](NC(=O)[C@H](C(C)C)N(C)C(=O)CNC(=O)CCl)Cc1cc(O)cc-3c1` [Compound 150], for which, in experiment [1], the half-maximal effective concentration (EC50) was 0.5 to 5 µM. Further, at cyclophilin A (CYPA), the Kd is 5 to 15 µM.
In the case of `CC1=C(C)C(=O)N(CC(=O)N(C)[C@H](C(=O)N[C@H]2Cc3cc(O)cc(c3)-c3ccc4ncn(c4c3)CCCOC(=O)[C@@H]3CCCN(N3)C2=O)C(C)C)C1=O` [Compound 153], the EC50 in experiment [1] is greater than 5 µM. Moreover, the Kd on cyclophilin A (CYPA) lay in the range of 5 to 15 µM.
With `CC(C)[C@@H](C(=O)N[C@H]1Cc2cc(O)cc(c2)-c2ccc3nc(-c4ccccc4C#N)n(c3c2)CCCOC(=O)[C@@H]2CCCN(N2)C1=O)N(C)C(=O)C1CN(C(=O)CCl)C1` [Compound 167], the EC50 in experiment [1] fell in the range of 0.5 to 5 µM. Moreover, the Kd on cyclophilin A (CYPA) was no more than 5 µM.
In turn, `COc1ccccc1-c1nc2ccc3cc2n1CCCOC(=O)[C@@H]1CCCN(N1)C(=O)[C@@H](NC(=O)[C@H](C(C)C)N(C)C(=O)C1CN(C(=O)CCl)C1)Cc1cc(O)cc-3c1` [Compound 168] showed an EC50 in experiment [1] of no more than 0.5 µM. The Kd at cyclophilin A (CYPA) is no more than 5 µM.
As for `CC(C)[C@@H](C(=O)N[C@H]1Cc2cc(O)cc(c2)-c2ccc3nc(C4CCOCC4)n(c3c2)CCCOC(=O)[C@@H]2CCCN(N2)C1=O)N(C)C(=O)C1CN(C(=O)CCl)C1` [Compound 170], the concentration for a half-maximal effect (EC50) in experiment [1] was 0.5 to 5 µM. Further, the Kd at cyclophilin A (CYPA) lay within 5 to 15 µM.
Turning to `CC(C)[C@@H](C(=O)N[C@H]1Cc2cc(O)cc(c2)-c2ccc3ncn(c3c2)CCCOC(=O)[C@@H]2CCCN(N2)C1=O)N(C)C(=O)C1CN(C(=O)CCl)C1` [Compound 234, 1-(2-chloroacetyl)-N-((2S)-1-(((6^3S,4S)-2^5-hydroxy-5,7-dioxo-6^1,6^2,6^3,6^4,6^5,6-hexahydro-1^1H-8-oxa-1(6,1)-benzo[d]imidazola-6(1,3)-pyridazina-2(1,3)-benzenacycloundecaphane-4-yl)amino)-3-methyl-1-oxobutan-2-yl)-N-methylazetidine-3-carboxamide], the Kd at cyclophilin A (CYPA) is no more than 5 µM.
